{"source": "paper PMC8587999", "about": "“Assessment of the Activity of Decoquinate and Its Quinoline-O-Carbamate Derivatives against Toxoplasma gondii In Vitro and in Pregnant Mice Infected with T. gondii Oocysts” (Molecules, 2021)", "key": {"[1]": {"design": "method as in https://www.drugs.com/pro/deccox.html", "details": "rats; ref https://www.drugs.com/pro/deccox.html; cited from earlier work"}, "[2]": {"tested_on": "T. gondii TgShSp1 oocysts", "assay": "DCQ efficacy assessment in pregnant CD1 mice orally infected with TgShSp1 oocysts", "assay_type": "in vivo", "description": "Twenty-nine female and 15 male CD1 mice, all 8 weeks of age, were used. Oestrus-synchronization and mating was carried out as described under Section 4.6. Subsequently, females were distributed randomly to 3 experimental groups: DCQ, DCQ + infection (n = 12); C+, corn oil + infection (n = 12); C-, only corn oil (n = 5). Infection was performed with 100 TgShSp1 oocysts at day 7 post-mating by oral gavage; the C− group received PBS. The treatment with DCQ suspended in corn oil at 10 mg/kg/day for 5 days; that only with corn oil was initiated at 2 days post-infection. At day 18 post-mating, pregnant mice were distributed into single cages and non-pregnant mice were housed together with 3–4 animals per cage. Dams gave birth between day 20–22, and clinical status, litter size, neonatal and postnatal mortality were recorded daily. Four weeks post-partum (p.p.), all mice were euthanized in a chamber by isoflurane/CO2 inhalation. Blood and brain samples were collected. Total IgG was measured in T. gondii infected mice by ELISA [49].\n(§1) Quantification of the cerebral parasite load in non-pregnant mice, dams and pups was carried out with an established real-time PCR method for the detection of T. gondii. The NucleoSpin DNA RapidLyze Kit (Macherey-Nagel, Oensingen, Switzerland) was used for DNA purification according to the standard protocol and DNA concentrations were quantified by the QuantiFluor double-stranded DNA (dsDNA) system (Promega, Madison, WI, USA). Quantitative real-time PCR was performed with the Light Cycler (Roche, Basel, Switzerland), and the parasite load was calculated by including a standard curve of DNA samples from 1000, 100, and 10 T. gondii tachyzoites per run.\n(§2) Graph creation and statistical analysis was performed in GraphPad Prism version 5.0 (GraphPad Software, La Jolla, CA, USA). Cerebral parasite burdens were compared between groups by the non-parametric Kruskal–Wallis test, followed by Mann–Whitney U test. Pup mortality over time was depicted by plotting survival events at each time point in Kaplan–Meier graphs and survival curves were compared by the Log-rank (Mantel–Cox) test."}, "[3]": {"design": "method as in PMID 32626086", "details": "cited from earlier work"}, "[4]": {"design": "method as in PMID 19614848", "details": "milking cows, formulated DCQ 0.5 mg/kg; cited from earlier work"}, "Sarcocystis neurona": {"tested_on": "Sarcocystis neurona", "design": "method as in PMID 23523012", "details": "cited from earlier work"}, "T. gondii oocysts": {"tested_on": "T. gondii oocysts", "design": "method as in PMID 8735260", "details": "treatment commencing 10 days prior to infection with T. gondii oocysts; cited from earlier work"}, "[5]": {"tested_on": "T. gondii TgShSp1 oocysts", "assay": "RMB060 efficacy assessment in pregnant CD1 mice orally infected with TgShSp1 oocysts", "assay_type": "in vivo", "description": "Eight-week-old CD1 mice, 29 females and 15 males, were used. After oestrus-synchronization and mating, females were randomly distributed to 3 experimental groups: RMB060, RMB060 + infection (n = 12); C+, corn oil + infection (n = 12); C−, only corn oil (n = 5). Infection was carried out at day 7 post-mating with 100 TgShSp1 oocysts suspended in 100 µL PBS, with the C−group receiving only PBS. Treatments, separation of pregnant and non-pregnant mice, and monitoring were performed as described in Section 4.7. All mice were euthanized 4 weeks p.p. by isoflurane/CO2. Blood and brain samples were collected. Total IgG was measured in T. gondii infected mice by ELISA to see whether drug treatment would have an impact on the humoral immune response.\nas §1, §2"}, "[6]": {"tested_on": "liver stage of Plasmodium berghei malaria parasites", "design": "method as in doi:10.1038/s42004-018-0062-7", "details": "cited from earlier work"}, "[7]": {"details": "CD1 mice, TgShSp1 oocysts, 10 mg/kg/day oral for 5 days, positive/total adult mice"}, "[8]": {"details": "brain PCR, surviving pups, 10 mg/kg/day oral for 5 days"}, "[9]": {"details": "brain PCR, 10 mg/kg/day oral for 5 days"}, "[10]": {"details": "dead pups/pups born, 10 mg/kg/day oral for 5 days, 10 mg/kg/day"}, "[11]": {"details": "real-time PCR, 4 weeks p.p., non-pregnant mice and dams"}, "[12]": {"details": "serum at end of experiment, RIPC, non-pregnant mice and dams"}}, "note": "“And” between values parts separate entries of the source, which are not always exact repeats. Equal entries are not always repeated."}
{"smiles": "CCCCCCCCCCOc1cc2c(O)c(C(=O)OCC)cnc2cc1OCC", "note": "[DCQ, ethyl 6-decyloxy-7-ethoxy-4-oxo-1H-quinoline-3-carboxylate]", "values": [{"measurement": "LD50", "setting": "[1]", "value": "> 5000", "unit": "mg/kg"}, {"measurement": "Vertical transmission", "setting": "[2]; 10 mg/kg/day for 5 days", "value": "did not prevent vertical transmission"}, {"measurement": "Neonatal pup mortality", "setting": "[2]; 10 mg/kg/day for 5 days, C+ group 40%", "value": 70, "unit": "%"}, {"measurement": "No. of Pups/No. of Dams", "setting": "[2]; 10 mg/kg/day oral for 5 days", "value": "92/8"}, {"measurement": "Seropositive for T. gondii", "setting": "[2]; [7]", "value": "11/12"}, {"measurement": "Brain infection detected in adult mice (dams and non-pregnant mice)", "setting": "[2]; PCR, 10 mg/kg/day for 5 days", "value": "11 out of 12"}, {"measurement": "T. gondii Positive Pups", "setting": "[2]; [8]", "value": "25/25"}, {"measurement": "T. gondii Positive Dams", "setting": "[2]; [9]", "value": "8/8"}, {"measurement": "T. gondii Positive Non-Pregnant Mice", "setting": "[2]; [9]", "value": "3/4"}, {"measurement": "Neonatal Mortality", "setting": "[2]; [10]", "value": "64 out of 92 and 64/92"}, {"measurement": "Postnatal Mortality", "setting": "[2]; dead/remaining pups, 1-month follow-up, 10 mg/kg/day oral for 5 days, 10 mg/kg/day", "value": "3 of the 28 and 3/28"}, {"measurement": "Cerebral parasite burden compared to the C+ group", "setting": "[2]; [11]", "value": "No statistically significant differences"}, {"measurement": "T. gondii IgG antibody titers compared to the C+ group", "setting": "[2]; [12]", "value": "no statistically significant differences"}, {"measurement": "aqueous solubility", "setting": "[3]", "value": 0.06, "unit": "µg/mL"}, {"measurement": "maximum concentration attained in plasma", "setting": "[4]", "value": 2, "unit": "µM"}, {"measurement": "Activity against S. neurona schizonts", "setting": "Sarcocystis neurona; 10 day treatment at 240 nM", "value": "parasiticidal activity"}, {"measurement": "IC50", "setting": "Sarcocystis neurona; read-out: IC50 values for S. neurona merozoites", "value": "0.6 to 1.1", "unit": "nM"}, {"measurement": "Outcome of prophylactic treatment in ewes", "setting": "T. gondii oocysts", "value": "decreased pathological changes in the placental tissue"}]}
{"smiles": "CCCCCCCCCCOc1cc2c(OC(=O)N3CCN(S(C)(=O)=O)C3=O)c(C(=O)OCC)cnc2cc1OCC", "note": "[RMB060]", "values": [{"measurement": "Vertical transmission", "setting": "[5]; 10 mg/kg/day for 5 days", "value": "vertical transmission to pups could not be prevented"}, {"measurement": "Postnatal Mortality", "setting": "[5]; 10 mg/kg/day for 5 days, C+ group 9.2%", "value": 3.8, "unit": "%"}, {"measurement": "Neonatal Mortality", "setting": "[5]; 10 mg/kg/day for 5 days, C+ group 23%, non-significant", "value": 16.8, "unit": "%"}, {"measurement": "Surviving pups PCR-positive for T. gondii in the brain", "setting": "[5]; 10 mg/kg/day for 5 days, C+ group 89%", "value": 62, "unit": "%"}, {"measurement": "No. of Pups/No. of Dams", "setting": "[5]; 10 mg/kg/day oral for 5 days", "value": "125/10"}, {"measurement": "Seropositive for T. gondii", "setting": "[5]; [7]", "value": "8/12"}, {"measurement": "Survival curves of pups compared to the C+ group", "setting": "[5]; Kaplan–Meier, Log-rank (Mantel-Cox) test", "value": "No statistically significant differences"}, {"measurement": "Brain infection detected in adult mice (dams and non-pregnant mice)", "setting": "[5]; PCR, 10 mg/kg/day for 5 days", "value": "eight out of 12"}, {"measurement": "T. gondii Positive Pups", "setting": "[5]; [8]", "value": "62/100"}, {"measurement": "T. gondii Positive Dams", "setting": "[5]; [9]", "value": "7/10"}, {"measurement": "T. gondii Positive Non-Pregnant Mice", "setting": "[5]; [9]", "value": "1/2"}, {"measurement": "Neonatal Mortality", "setting": "[5]; [10]", "value": "21 out of 125 and 21/125"}, {"measurement": "Postnatal Mortality", "setting": "[5]; dead/remaining pups, 10 mg/kg/day oral for 5 days", "value": "4/104"}, {"measurement": "Cerebral parasite burden compared to the C+ group", "setting": "[5]; [11]", "value": "No statistically significant differences"}, {"measurement": "T. gondii IgG antibody titers compared to the C+ group", "setting": "[5]; [12]", "value": "no statistically significant differences"}, {"measurement": "Activity against the liver stage of Plasmodium berghei", "setting": "[6]", "value": "highly active"}]}
